In ChEMBL document CHEMBL5291721, “A preclinical secondary pharmacology resource illuminates target-adverse drug reaction associations of marketed drugs” (Nat Commun, 2023) one finds AC50 data, which are given here for nine compounds.

Targets include Histamine H3 receptor (Homo sapiens, UniProt Q9Y5N1); D(3) dopamine receptor (Homo sapiens, UniProt P35462); Histamine H1 receptor (Homo sapiens, UniProt P35367).
Another assay concerns the target Histamine H2 receptor (Homo sapiens, UniProt P25021). The format is functional, cell-based.
For assay [1], the target named is Sodium-dependent serotonin transporter (Homo sapiens, UniProt P31645).
Chain of Sodium-dependent serotonin transporter (P31645 whole entry): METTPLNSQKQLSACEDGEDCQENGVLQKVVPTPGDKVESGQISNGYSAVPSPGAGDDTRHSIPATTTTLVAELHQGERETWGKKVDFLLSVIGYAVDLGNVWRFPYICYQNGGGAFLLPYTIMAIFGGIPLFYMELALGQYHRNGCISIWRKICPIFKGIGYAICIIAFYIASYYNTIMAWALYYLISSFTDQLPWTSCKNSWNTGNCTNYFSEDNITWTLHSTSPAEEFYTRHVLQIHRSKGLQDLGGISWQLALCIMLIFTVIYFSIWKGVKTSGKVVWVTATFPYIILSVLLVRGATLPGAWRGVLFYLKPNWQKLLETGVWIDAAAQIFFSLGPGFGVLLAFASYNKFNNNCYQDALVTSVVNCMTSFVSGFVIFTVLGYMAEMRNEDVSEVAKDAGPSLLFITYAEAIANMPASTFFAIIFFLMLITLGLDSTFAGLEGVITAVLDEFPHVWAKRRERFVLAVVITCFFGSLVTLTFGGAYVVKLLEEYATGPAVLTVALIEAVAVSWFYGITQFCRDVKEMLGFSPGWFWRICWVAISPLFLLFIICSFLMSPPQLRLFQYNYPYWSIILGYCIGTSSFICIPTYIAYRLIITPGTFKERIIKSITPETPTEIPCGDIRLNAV
Assay [2] addresses T1, 5-hydroxytryptamine receptor 2C (Homo sapiens, UniProt P28335).
T1 sequence (P28335 whole entry): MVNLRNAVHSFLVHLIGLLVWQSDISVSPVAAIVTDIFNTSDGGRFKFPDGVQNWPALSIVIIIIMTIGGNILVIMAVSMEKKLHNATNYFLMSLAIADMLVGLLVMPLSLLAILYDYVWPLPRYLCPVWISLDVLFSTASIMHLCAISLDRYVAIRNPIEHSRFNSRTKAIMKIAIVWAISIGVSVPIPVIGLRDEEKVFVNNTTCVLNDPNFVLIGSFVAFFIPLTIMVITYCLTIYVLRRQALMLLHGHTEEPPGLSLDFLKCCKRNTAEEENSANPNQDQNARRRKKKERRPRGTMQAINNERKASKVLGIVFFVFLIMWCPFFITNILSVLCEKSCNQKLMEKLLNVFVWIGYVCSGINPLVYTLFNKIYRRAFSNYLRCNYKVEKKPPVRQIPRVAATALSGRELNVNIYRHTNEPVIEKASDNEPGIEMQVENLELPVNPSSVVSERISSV

For assay [3], the target named is Delta-type opioid receptor (Homo sapiens, UniProt P41143).
Chain of Delta-type opioid receptor (P41143 whole entry): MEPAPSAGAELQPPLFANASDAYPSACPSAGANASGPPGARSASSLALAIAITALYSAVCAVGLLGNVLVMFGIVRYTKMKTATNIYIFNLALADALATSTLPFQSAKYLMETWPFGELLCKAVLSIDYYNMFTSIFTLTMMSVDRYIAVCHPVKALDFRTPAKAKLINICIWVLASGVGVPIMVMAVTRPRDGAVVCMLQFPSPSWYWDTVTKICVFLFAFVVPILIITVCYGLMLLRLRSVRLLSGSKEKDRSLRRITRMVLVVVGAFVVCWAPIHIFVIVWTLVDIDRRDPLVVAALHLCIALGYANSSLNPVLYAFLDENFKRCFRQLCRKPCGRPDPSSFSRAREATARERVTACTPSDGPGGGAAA
The target of the next assay is T2, Progesterone receptor (Homo sapiens, UniProt P06401).
T2 sequence (P06401 whole entry): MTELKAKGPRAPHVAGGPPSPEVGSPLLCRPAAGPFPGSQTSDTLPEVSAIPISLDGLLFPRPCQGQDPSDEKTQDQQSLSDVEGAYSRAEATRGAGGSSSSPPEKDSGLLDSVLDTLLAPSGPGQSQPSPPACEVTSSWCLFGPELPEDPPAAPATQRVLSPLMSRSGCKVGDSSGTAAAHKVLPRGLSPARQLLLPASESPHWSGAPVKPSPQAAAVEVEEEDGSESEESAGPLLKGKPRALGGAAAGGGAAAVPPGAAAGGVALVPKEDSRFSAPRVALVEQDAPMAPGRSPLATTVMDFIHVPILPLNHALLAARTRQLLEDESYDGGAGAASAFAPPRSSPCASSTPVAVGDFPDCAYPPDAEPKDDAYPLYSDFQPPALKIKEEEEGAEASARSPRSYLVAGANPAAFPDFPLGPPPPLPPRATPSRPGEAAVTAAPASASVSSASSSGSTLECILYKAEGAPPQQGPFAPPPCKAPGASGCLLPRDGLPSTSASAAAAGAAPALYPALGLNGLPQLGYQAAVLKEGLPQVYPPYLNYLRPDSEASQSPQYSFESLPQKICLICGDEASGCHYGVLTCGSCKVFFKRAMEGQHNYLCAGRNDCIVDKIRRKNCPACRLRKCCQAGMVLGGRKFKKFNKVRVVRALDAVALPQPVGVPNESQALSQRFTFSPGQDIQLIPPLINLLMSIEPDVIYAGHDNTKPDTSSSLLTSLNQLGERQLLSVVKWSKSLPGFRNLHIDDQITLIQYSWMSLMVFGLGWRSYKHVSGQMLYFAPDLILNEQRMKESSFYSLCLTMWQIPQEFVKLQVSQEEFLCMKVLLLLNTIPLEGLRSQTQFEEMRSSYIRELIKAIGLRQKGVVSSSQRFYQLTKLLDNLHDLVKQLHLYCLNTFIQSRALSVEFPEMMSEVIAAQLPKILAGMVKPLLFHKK
The format is functional.

Assay [4] has as its target Sodium-dependent noradrenaline transporter (Homo sapiens, UniProt P23975).
The target of a further assay is T3, Thromboxane A2 receptor (Homo sapiens, UniProt P21731).
T3 sequence (P21731 whole entry): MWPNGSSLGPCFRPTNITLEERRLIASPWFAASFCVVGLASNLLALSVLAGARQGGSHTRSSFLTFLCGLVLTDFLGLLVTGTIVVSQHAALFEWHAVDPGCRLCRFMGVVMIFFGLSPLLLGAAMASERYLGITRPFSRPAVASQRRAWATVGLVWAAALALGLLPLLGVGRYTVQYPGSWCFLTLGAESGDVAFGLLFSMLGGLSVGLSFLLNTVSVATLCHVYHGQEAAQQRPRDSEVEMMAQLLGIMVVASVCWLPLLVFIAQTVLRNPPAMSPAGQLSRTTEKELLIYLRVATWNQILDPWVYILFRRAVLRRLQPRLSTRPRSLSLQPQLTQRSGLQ

The next assay concerns the target T4, Glucocorticoid receptor (Homo sapiens, UniProt P04150).
T4 sequence (P04150 whole entry): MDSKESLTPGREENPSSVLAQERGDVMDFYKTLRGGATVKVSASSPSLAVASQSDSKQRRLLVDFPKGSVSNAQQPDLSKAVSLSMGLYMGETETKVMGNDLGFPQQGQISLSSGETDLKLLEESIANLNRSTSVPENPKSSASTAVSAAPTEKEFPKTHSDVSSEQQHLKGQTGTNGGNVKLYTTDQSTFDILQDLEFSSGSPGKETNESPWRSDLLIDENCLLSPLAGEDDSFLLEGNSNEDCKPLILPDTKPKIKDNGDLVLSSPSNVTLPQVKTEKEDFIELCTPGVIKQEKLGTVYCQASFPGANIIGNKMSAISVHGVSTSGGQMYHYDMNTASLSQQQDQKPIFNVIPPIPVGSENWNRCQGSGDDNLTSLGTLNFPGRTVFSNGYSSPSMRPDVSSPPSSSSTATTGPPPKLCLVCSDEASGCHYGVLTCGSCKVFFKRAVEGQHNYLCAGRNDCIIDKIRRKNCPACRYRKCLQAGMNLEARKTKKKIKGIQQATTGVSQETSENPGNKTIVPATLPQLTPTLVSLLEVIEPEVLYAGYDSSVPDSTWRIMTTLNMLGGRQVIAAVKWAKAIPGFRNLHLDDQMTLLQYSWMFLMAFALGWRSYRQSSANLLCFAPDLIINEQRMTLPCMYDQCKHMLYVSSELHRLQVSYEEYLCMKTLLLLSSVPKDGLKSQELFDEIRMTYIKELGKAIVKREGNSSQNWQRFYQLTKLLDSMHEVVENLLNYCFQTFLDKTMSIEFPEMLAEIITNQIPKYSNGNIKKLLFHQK

Assay [5] deals with Sodium-dependent dopamine transporter (Homo sapiens, UniProt Q01959).
Chain of Sodium-dependent dopamine transporter (Q01959 whole entry): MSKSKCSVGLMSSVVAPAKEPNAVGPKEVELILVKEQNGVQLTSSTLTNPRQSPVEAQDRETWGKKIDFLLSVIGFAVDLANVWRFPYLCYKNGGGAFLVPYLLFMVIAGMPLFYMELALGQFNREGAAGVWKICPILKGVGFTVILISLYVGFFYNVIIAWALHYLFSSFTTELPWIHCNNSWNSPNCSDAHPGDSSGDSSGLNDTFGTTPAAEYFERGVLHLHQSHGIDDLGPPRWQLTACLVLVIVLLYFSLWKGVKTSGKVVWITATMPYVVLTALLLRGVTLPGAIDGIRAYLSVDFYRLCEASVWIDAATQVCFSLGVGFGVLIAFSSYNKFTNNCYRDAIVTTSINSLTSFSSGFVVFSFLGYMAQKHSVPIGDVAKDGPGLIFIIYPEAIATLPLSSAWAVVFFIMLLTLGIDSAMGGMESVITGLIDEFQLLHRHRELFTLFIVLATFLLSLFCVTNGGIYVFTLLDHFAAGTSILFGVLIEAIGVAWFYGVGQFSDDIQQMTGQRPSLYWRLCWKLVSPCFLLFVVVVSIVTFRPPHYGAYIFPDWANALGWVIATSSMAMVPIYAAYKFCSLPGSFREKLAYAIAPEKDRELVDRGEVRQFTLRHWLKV
Also: assay procedure not described here.

Chain of Histamine H3 receptor (Q9Y5N1 whole entry): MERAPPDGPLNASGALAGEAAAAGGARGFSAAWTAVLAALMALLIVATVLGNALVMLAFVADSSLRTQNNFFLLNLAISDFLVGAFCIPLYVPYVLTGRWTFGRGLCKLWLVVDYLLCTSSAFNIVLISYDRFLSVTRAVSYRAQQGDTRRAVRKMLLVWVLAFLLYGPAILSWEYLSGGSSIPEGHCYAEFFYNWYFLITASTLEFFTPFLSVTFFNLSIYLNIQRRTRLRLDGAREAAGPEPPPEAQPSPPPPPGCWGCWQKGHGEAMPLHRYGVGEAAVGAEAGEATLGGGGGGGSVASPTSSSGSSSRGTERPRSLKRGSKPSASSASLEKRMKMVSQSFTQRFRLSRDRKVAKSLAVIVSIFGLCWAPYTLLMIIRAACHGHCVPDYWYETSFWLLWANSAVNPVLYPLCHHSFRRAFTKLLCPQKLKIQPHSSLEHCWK
Chain of Sodium-dependent noradrenaline transporter (P23975 whole entry): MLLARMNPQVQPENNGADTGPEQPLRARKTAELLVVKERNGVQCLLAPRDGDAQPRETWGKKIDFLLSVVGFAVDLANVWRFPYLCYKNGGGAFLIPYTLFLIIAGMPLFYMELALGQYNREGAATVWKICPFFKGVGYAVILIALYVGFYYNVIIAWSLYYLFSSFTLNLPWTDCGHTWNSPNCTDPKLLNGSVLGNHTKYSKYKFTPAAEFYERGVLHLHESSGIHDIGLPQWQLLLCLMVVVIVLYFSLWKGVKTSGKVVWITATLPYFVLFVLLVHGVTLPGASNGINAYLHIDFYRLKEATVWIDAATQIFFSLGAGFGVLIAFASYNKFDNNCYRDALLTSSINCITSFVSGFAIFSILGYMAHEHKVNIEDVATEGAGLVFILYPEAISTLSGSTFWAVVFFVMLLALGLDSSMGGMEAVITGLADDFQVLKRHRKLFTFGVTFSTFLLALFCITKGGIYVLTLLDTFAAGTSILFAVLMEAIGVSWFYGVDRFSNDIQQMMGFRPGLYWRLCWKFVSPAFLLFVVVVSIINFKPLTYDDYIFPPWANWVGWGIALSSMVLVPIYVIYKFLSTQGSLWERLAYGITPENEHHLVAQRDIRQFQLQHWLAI
Chain of Histamine H2 receptor (P25021 whole entry): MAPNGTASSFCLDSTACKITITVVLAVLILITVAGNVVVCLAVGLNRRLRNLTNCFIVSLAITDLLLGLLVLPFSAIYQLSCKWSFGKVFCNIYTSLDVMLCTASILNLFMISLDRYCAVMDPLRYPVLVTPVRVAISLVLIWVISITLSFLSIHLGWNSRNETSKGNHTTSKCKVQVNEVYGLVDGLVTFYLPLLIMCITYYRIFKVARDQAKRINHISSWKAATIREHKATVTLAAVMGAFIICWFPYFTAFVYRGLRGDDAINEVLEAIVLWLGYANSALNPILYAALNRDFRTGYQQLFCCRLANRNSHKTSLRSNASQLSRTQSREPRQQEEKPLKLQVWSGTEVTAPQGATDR
Chain of Histamine H1 receptor (P35367 whole entry): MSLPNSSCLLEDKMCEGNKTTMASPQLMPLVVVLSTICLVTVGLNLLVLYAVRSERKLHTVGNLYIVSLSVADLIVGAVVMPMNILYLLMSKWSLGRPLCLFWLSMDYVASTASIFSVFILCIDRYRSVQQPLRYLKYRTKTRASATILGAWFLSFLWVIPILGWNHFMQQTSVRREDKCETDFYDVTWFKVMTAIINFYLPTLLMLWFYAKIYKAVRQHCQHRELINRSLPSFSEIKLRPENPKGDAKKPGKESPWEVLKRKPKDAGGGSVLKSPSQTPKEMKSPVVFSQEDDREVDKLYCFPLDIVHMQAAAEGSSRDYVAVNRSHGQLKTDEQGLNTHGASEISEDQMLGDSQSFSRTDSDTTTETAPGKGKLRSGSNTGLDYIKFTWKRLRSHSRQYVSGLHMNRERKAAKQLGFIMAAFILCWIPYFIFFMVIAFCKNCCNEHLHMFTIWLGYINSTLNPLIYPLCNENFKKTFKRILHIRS
Chain of D(3) dopamine receptor (P35462 whole entry): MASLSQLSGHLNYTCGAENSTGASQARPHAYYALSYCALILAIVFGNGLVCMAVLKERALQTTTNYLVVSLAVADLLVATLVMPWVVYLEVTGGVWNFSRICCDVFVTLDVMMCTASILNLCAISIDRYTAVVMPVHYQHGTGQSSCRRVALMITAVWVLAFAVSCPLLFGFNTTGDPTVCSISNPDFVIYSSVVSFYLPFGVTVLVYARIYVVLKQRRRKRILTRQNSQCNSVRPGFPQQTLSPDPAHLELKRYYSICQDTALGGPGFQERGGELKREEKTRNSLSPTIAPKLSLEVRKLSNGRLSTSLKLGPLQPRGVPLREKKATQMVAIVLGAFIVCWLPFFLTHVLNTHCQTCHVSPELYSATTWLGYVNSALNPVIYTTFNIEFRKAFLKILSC

On to `C=C(c1ccccc1OCc1cccc(Cl)c1)n1ccnc1` [CROCONAZOLE], for which the concentration at half-maximal activity (AC50) on Histamine H3 receptor was > 10 µM; on D(3) dopamine receptor, > 30 µM; on Histamine H2 receptor, > 10 µM; in assay [1] it was 16.8 µM; on Histamine H1 receptor it was > 10 µM; in assay [2], 18 µM. In addition, the AC50 in assay [3] was > 30 µM; on Progesterone receptor, > 30 µM; in assay [4], 1.8 µM; at Thromboxane A2 receptor it was 16.2 µM; on Glucocorticoid receptor, 3.46 µM; in assay [5], > 30 µM.
With `CC(=O)Oc1cccc2c1C(=O)c1c(OC(C)=O)cc(C(=O)O)cc1C2=O` [DIACEREIN], the AC50 at Histamine H3 receptor is > 30 µM; at D(3) dopamine receptor, > 30 µM; at Histamine H2 receptor, > 30 µM; in assay [1], 23 µM; at Histamine H1 receptor it was > 30 µM; in [2], > 30 µM. In addition, the AC50 is > 30 µM in assay [3]; > 30 µM on Progesterone receptor; 13 µM in assay [4]; > 30 µM on Thromboxane A2 receptor; > 30 µM at Glucocorticoid receptor; > 30 µM in assay [5].
Turning to `Cc1ccc(S(=O)(=O)NC(=O)N[C@H]2[C@H]3CC[C@@](C)([C@H]2O)C3(C)C)cc1` [GLIBORNURIDE], the AC50 (at Histamine H3 receptor; at D(3) dopamine receptor; on Histamine H2 receptor; in assay [1]; at Histamine H1 receptor; in [2]) was > 30 µM each time. Further, the AC50 (in [3]; at Progesterone receptor; in assay [4]; at Thromboxane A2 receptor; at Glucocorticoid receptor; in assay [5]) was > 30 µM throughout.
On to `O=C(C[S+]([O-])Cc1ccco1)NC/C=C\COc1cc(CN2CCCCC2)ccn1` (stereo not drawn) [LAFUTIDINE], for which the AC50 at Histamine H3 receptor was > 10 µM; on D(3) dopamine receptor it was > 30 µM; at Histamine H2 receptor, > 10 µM; in assay [1] it was > 10 µM; on Histamine H1 receptor it was > 10 µM; in assay [2], > 30 µM. Also, the concentration at half-maximal activity (AC50) in assay [3] was > 30 µM; at Progesterone receptor, > 10 µM; in assay [4], > 10 µM; on Thromboxane A2 receptor, > 10 µM; on Glucocorticoid receptor, > 10 µM; in assay [5], > 10 µM.
As to `CCC1(CC)C(=O)NC(=O)N(C)C1=O` [METHARBITAL], the AC50 is > 10 µM at Histamine H3 receptor; > 30 µM on D(3) dopamine receptor; > 10 µM at Histamine H2 receptor; > 10 µM in assay [1]; > 10 µM on Histamine H1 receptor; > 30 µM in assay [2]. Moreover, the AC50 in assay [3] is > 30 µM; on Progesterone receptor, > 10 µM; in assay [4], > 10 µM; at Thromboxane A2 receptor it was > 10 µM; on Glucocorticoid receptor, > 10 µM; in assay [5], > 10 µM.
Regarding `CCN(CC)Cc1nccn1-c1ccc([N+](=O)[O-])cc1C(=O)c1ccccc1Cl` [NIZOFENONE], the concentration at half-maximal activity (AC50) (at Histamine H3 receptor; on D(3) dopamine receptor; on Histamine H2 receptor; in assay [1]; on Histamine H1 receptor; in assay [2]) was > 30 µM each time. Besides, the AC50 (in assay [3]; on Progesterone receptor; in [4]; on Thromboxane A2 receptor; at Glucocorticoid receptor; in [5]) was > 30 µM in each case.
As to `CC1=C(/C=C/C(C)=C/C=C/C(C)=C/C(=O)Oc2c(C)c(C)c3c(c2C)CCC(C)(CCCC(C)CCCC(C)CCCC(C)C)O3)C(C)(C)CCC1` (stereo not drawn) [TRETINOIN TOCOFERIL], the AC50 (on Histamine H3 receptor; at D(3) dopamine receptor; at Histamine H2 receptor; in assay [1]; at Histamine H1 receptor; in [2]) was > 30 µM throughout. Besides, the half-maximal activity concentration (AC50) (in [3]; at Progesterone receptor; in assay [4]; on Thromboxane A2 receptor; at Glucocorticoid receptor; in assay [5]) was > 30 µM each time.
Take `CN(C)CCOCC(=O)NC12CC3CC(CC(C3)C1)C2` [TROMANTADINE]: the AC50 (at Histamine H3 receptor; on D(3) dopamine receptor; at Histamine H2 receptor; in assay [1]; at Histamine H1 receptor; in assay [2]) was > 30 µM in each case. Besides, the AC50 (in assay [3]; at Progesterone receptor; in assay [4]; at Thromboxane A2 receptor; on Glucocorticoid receptor; in [5]) was > 30 µM each time.
For the compound `OCC(CO)N[C@H]1C[C@](O)(CO)[C@@H](O)[C@H](O)[C@H]1O` [VOGLIBOSE], the AC50 (at Histamine H3 receptor; at D(3) dopamine receptor; at Histamine H2 receptor; in assay [1]; on Histamine H1 receptor; in [2]) was > 30 µM throughout. Also, the AC50 (in [3]; at Progesterone receptor; in assay [4]; on Thromboxane A2 receptor; at Glucocorticoid receptor; in [5]) was > 30 µM each time.

In general, AC50 refers to the concentration at which the activity in the assay is half-maximal.
